Experimental data published in PubChem BioAssay (NCI).
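These data come from cells grown in 96-well plates and exposed to compound for 48 hours at five concentrations. At the TGI there is no net growth.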

Key:
Assay in all cases: inhibition of tumour cell growth, NCI panel, 48 h
786-0 renal = tested on: 786-0 renal
A498 renal = tested on: A498 renal
A549 NSCLC = tested on: A549 NSCLC
ACHN renal = tested on: ACHN renal
BT-549 breast = tested on: BT-549 breast
CAKI-1 renal = tested on: CAKI-1 renal
CCRF-CEM leukemia = tested on: CCRF-CEM leukemia
COLO 205 colon = tested on: COLO 205 colon
DU-145 prostate = tested on: DU-145 prostate
EKVX NSCLC = tested on: EKVX NSCLC
HCC-2998 colon = tested on: HCC-2998 colon
HCT-116 colon = tested on: HCT-116 colon
HCT-15 colon = tested on: HCT-15 colon
HL-60(TB) leukemia = tested on: HL-60(TB) leukemia
HOP-62 NSCLC = tested on: HOP-62 NSCLC
HS 578T breast = tested on: HS 578T breast
HT29 colon = tested on: HT29 colon
IGROV1 ovarian = tested on: IGROV1 ovarian
K-562 leukemia = tested on: K-562 leukemia
KM12 colon = tested on: KM12 colon
LOX IMVI melanoma = tested on: LOX IMVI melanoma
M14 melanoma = tested on: M14 melanoma
MALME-3M melanoma = tested on: MALME-3M melanoma
MCF7 breast = tested on: MCF7 breast
MDA-MB-231 breast = tested on: MDA-MB-231 breast
MDA-MB-435 = tested on: MDA-MB-435
MDA-N = tested on: MDA-N
MOLT-4 leukemia = tested on: MOLT-4 leukemia
NCI-H226 lung = tested on: NCI-H226 lung
NCI-H23 lung = tested on: NCI-H23 lung
NCI-H460 lung = tested on: NCI-H460 lung
NCI-H522 lung = tested on: NCI-H522 lung
NCI/ADR-RES ovarian = tested on: NCI/ADR-RES ovarian
OVCAR-3 ovarian = tested on: OVCAR-3 ovarian
OVCAR-5 ovarian = tested on: OVCAR-5 ovarian
OVCAR-8 ovarian = tested on: OVCAR-8 ovarian
PC-3 prostate = tested on: PC-3 prostate
RPMI-8226 leukemia = tested on: RPMI-8226 leukemia
SF-268 CNS = tested on: SF-268 CNS
SF-295 CNS = tested on: SF-295 CNS
SF-539 CNS = tested on: SF-539 CNS
SK-MEL-2 melanoma = tested on: SK-MEL-2 melanoma
SK-MEL-28 melanoma = tested on: SK-MEL-28 melanoma
SK-MEL-5 melanoma = tested on: SK-MEL-5 melanoma
SK-OV-3 ovarian = tested on: SK-OV-3 ovarian
SNB-19 CNS = tested on: SNB-19 CNS
SNB-75 CNS = tested on: SNB-75 CNS
SR leukemia = tested on: SR leukemia
SW-620 colon = tested on: SW-620 colon
T-47D breast = tested on: T-47D breast
TK-10 renal = tested on: TK-10 renal
U251 CNS = tested on: U251 CNS
UACC-257 melanoma = tested on: UACC-257 melanoma
UACC-62 melanoma = tested on: UACC-62 melanoma
UO-31 renal = tested on: UO-31 renal
HOP-92 NSCLC = tested on: HOP-92 NSCLC
OVCAR-4 ovarian = tested on: OVCAR-4 ovarian
SN12C renal = tested on: SN12C renal

SMILES: C=C(C)C(=O)OC1C[C@H](COC(C)=O)C2CC=C(CO)C2C2OC(=O)C(=C)[C@H]12 (some centres not stated)
- TGI (786-0 renal): 97.1 µM
- TGI (A498 renal): > 100 µM
- TGI (A549 NSCLC): > 100 µM
- TGI (ACHN renal): > 100 µM
- TGI (BT-549 breast): > 100 µM
- TGI (CAKI-1 renal): > 100 µM
- TGI (CCRF-CEM leukemia): 31.5 µM
- TGI (COLO 205 colon): 30 µM
- TGI (DU-145 prostate): > 100 µM
- TGI (EKVX NSCLC): > 100 µM
- TGI (HCC-2998 colon): > 100 µM
- TGI (HCT-116 colon): 38.2 µM
- TGI (HCT-15 colon): > 100 µM
- TGI (HL-60(TB) leukemia): 76 µM
- TGI (HOP-62 NSCLC): > 100 µM
- TGI (HS 578T breast): > 100 µM
- TGI (HT29 colon): > 100 µM
- TGI (IGROV1 ovarian): > 100 µM
- TGI (K-562 leukemia): 54.4 µM
- TGI (KM12 colon): > 100 µM
- TGI (LOX IMVI melanoma): > 100 µM
- TGI (M14 melanoma): 31 µM
- TGI (MALME-3M melanoma): 44.3 µM
- TGI (MCF7 breast): > 100 µM
- TGI (MDA-MB-231 breast): > 100 µM
- TGI (MDA-MB-435): > 100 µM
- TGI (MDA-N): > 100 µM
- TGI (MOLT-4 leukemia): 45.7 µM
- TGI (NCI-H226 lung): > 100 µM
- TGI (NCI-H23 lung): > 100 µM
- TGI (NCI-H460 lung): > 100 µM
- TGI (NCI-H522 lung): 33.8 µM
- TGI (NCI/ADR-RES ovarian): > 100 µM
- TGI (OVCAR-3 ovarian): > 100 µM
- TGI (OVCAR-5 ovarian): > 100 µM
- TGI (OVCAR-8 ovarian): > 100 µM
- TGI (PC-3 prostate): > 100 µM
- TGI (RPMI-8226 leukemia): > 100 µM
- TGI (SF-268 CNS): 60.2 µM
- TGI (SF-295 CNS): > 100 µM
- TGI (SF-539 CNS): > 100 µM
- TGI (SK-MEL-2 melanoma): > 100 µM
- TGI (SK-MEL-28 melanoma): > 100 µM
- TGI (SK-MEL-5 melanoma): > 100 µM
- TGI (SK-OV-3 ovarian): > 100 µM
- TGI (SNB-19 CNS): > 100 µM
- TGI (SNB-75 CNS): > 100 µM
- TGI (SR leukemia): 65.2 µM
- TGI (SW-620 colon): 40 µM
- TGI (T-47D breast): > 100 µM
- TGI (TK-10 renal): > 100 µM
- TGI (U251 CNS): > 100 µM
- TGI (UACC-257 melanoma): > 100 µM
- TGI (UACC-62 melanoma): > 100 µM
- TGI (UO-31 renal): > 100 µM

SMILES: NCCNC(=O)CN(CC(=O)O)C1CCCCC1N(CC(=O)O)CC(=O)O (configuration not stated)
- TGI (786-0 renal): > 100 µM
- TGI (A498 renal): > 100 µM
- TGI (A549 NSCLC): > 100 µM
- TGI (ACHN renal): > 100 µM
- TGI (BT-549 breast): > 100 µM
- TGI (CAKI-1 renal): > 100 µM
- TGI (CCRF-CEM leukemia): > 100 µM
- TGI (COLO 205 colon): > 100 µM
- TGI (DU-145 prostate): > 100 µM
- TGI (EKVX NSCLC): > 100 µM
- TGI (HCC-2998 colon): > 100 µM
- TGI (HCT-116 colon): > 100 µM
- TGI (HCT-15 colon): > 100 µM
- TGI (HL-60(TB) leukemia): > 100 µM
- TGI (HOP-62 NSCLC): > 100 µM
- TGI (HOP-92 NSCLC): > 100 µM
- TGI (HS 578T breast): > 100 µM
- TGI (HT29 colon): > 100 µM
- TGI (IGROV1 ovarian): > 100 µM
- TGI (K-562 leukemia): > 100 µM
- TGI (KM12 colon): > 100 µM
- TGI (LOX IMVI melanoma): > 100 µM
- TGI (M14 melanoma): > 100 µM
- TGI (MALME-3M melanoma): > 100 µM
- TGI (MCF7 breast): > 100 µM
- TGI (MDA-MB-231 breast): > 100 µM
- TGI (MDA-MB-435): > 100 µM
- TGI (MDA-N): > 100 µM
- TGI (MOLT-4 leukemia): > 100 µM
- TGI (NCI-H226 lung): > 100 µM
- TGI (NCI-H23 lung): > 100 µM
- TGI (NCI-H460 lung): > 100 µM
- TGI (NCI-H522 lung): > 100 µM
- TGI (NCI/ADR-RES ovarian): > 100 µM
- TGI (OVCAR-3 ovarian): > 100 µM
- TGI (OVCAR-4 ovarian): > 100 µM
- TGI (OVCAR-5 ovarian): > 100 µM
- TGI (OVCAR-8 ovarian): > 100 µM
- TGI (PC-3 prostate): > 100 µM
- TGI (SF-268 CNS): > 100 µM
- TGI (SF-295 CNS): > 100 µM
- TGI (SF-539 CNS): > 100 µM
- TGI (SK-MEL-2 melanoma): > 100 µM
- TGI (SK-MEL-28 melanoma): > 100 µM
- TGI (SK-MEL-5 melanoma): > 100 µM
- TGI (SK-OV-3 ovarian): > 100 µM
- TGI (SN12C renal): > 100 µM
- TGI (SNB-19 CNS): > 100 µM
- TGI (SNB-75 CNS): 94.9 µM
- TGI (SR leukemia): > 100 µM
- TGI (SW-620 colon): > 100 µM
- TGI (T-47D breast): > 100 µM
- TGI (TK-10 renal): > 100 µM
- TGI (U251 CNS): > 100 µM
- TGI (UACC-257 melanoma): > 100 µM
- TGI (UACC-62 melanoma): > 100 µM
- TGI (UO-31 renal): > 100 µM
